Results on 3 compounds are retold here after US12343416B2, “Skin engaging member for razor cartridge comprising skin active ingredient” (BIC-VIOLEX S.A., priority 2019, dated 2025).

Series [1] is classed as physicochemical. The source says:
Again, without being bound to theory, one could explain this thermostability by the low volatility related with high molecular weight. Indeed, Glycyrrhizic acid and its salts are widely used in food applications that are intended to be baked and keeping the sweetness.

Series [2] can be described thus: Retention of skin active ingredient after extrusion of the skin engaging member (process tolerance / thermal stability). The class given is physicochemical. Particulars: initial concentration 1% in HIPS/PEG/BHT blend; heated to melt and extruded via rotating screw; 150° C. to 300° C., 250-2000 bar. How it is done:
Therefore and more particularly, throughout the present description and claims, the expression “thermally tolerant” or “thermally stable” or “process tolerant” should thus be understood that the skin engaging member retains the contained skin active ingredient, after a thermal treatment/processing at about 150 to 300° C., from 2 to 15 minutes and pressure conditions between 250-2000 bar, in processes such as extrusion or injection or injection-molding, in concentration that is detected quantitatively at the end product/article, by applying analytical chemistry methods, such as liquid chromatography. In embodiments that the skin engaging member comprises skin active ingredient capable of treating and/or preventing skin redness or skin irritation and being selected from the group consisting of a) at least one terpenic acid derivative, b) strombine or salt of strombine, combined with a clay, and c) mixtures thereof, the concentration of the skin active ingredient retained after the thermal treatment/processing is about 0.001-100%, particularly 20-80%, more particularly 20-70%, of the initial quantity of skin active ingredient added. […]
The quantity of the skin active ingredient in the skin engaging member can be measured/evaluated by (chromatographic) methods known to the skilled person depending on the nature of the active ingredient. […]

As for `CC1(C)[C@@H](O[C@H]2O[C@H](C(=O)O)[C@@H](O)[C@H](O)[C@H]2O[C@@H]2O[C@H](C(=O)O)[C@@H](O)[C@H](O)[C@H]2O)CC[C@]2(C)[C@H]3C(=O)C=C4[C@@H]5C[C@@](C)(C(=O)O)CC[C@]5(C)CC[C@@]4(C)[C@]3(C)CC[C@@H]12` [Glycyrrhizic acid, (3-beta, 20-beta)-20-carboxy-11-oxo-30-norolean-12-en-β-yl 2-O-beta-D-glucopyranuronosyl-alpha-D-glucopyranosiduronic], the heat stability/tolerance entry in series [1] was “heat stable/tolerant”.
For `C[C@H]1[C@H](C)CC[C@]2(C)CC[C@]3(C)C(=CC[C@@H]4[C@@]5(C)CC[C@@H](O)[C@](C)(C(=O)O)[C@@H]5CC[C@]43C)[C@H]12` [boswellic acid], the “reduction of the amount of skin active ingredient compared to the initial concentration, measured in the final skin engaging member” value in series [2] is 52.2%.
“Dipotassium Glycyrrhizinate/Glycyrrhizate”: the “reduction of the amount of skin active ingredient compared to the initial concentration, measured in the final skin engaging member” value in series [2] came out at 30%. Further, the heat stability/tolerance result in series [1] is listed as “heat stable/tolerant”.
